Measurements reported in patent US20260262643A1, “HERBICIDAL BENZOXAZINES” (FMC CORPORATION, priority 2022, published 2026).

What was measured:
[1] = test system: blackgrass; assay: Test A preemergence; assay type: in vivo, Alopecurus myosuroides
Method in brief: (§1)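 Seeds in loam–sand blend received a directed preemergence soil spray of compound in non-phytotoxic solvent with surfactant; postemergence plants (2–10 cm, one- to two-leaf stage) were sprayed with the same formulation. After 10 days in greenhouse, injury was rated visually versus untreated controls, 0 (no effect) to 100 (complete control).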

[2] = test system: foxtail, giant; assay: Test A preemergence; assay type: in vivo, Setaria faberi
Method in brief: as §1

[3] = test system: oat, wild; assay: Test A postemergence; assay type: in vivo, Avena fatua
Method in brief: as §1

[4] = test system: pigweed, palmer; assay: Test A preemergence; assay type: in vivo, Amaranthus palmeri
Method in brief: as §1

[5] = test system: corn; assay: Test A preemergence; assay type: in vivo, Zea mays
Method in brief: as §1

[6] = test system: barnyardgrass; assay: Test B flooded paddy test; assay type: in vivo, Echinochloa crus-galli; settings: 250 g ai/ha, Flood, 13 days, 0 to 100 scale (0 no effect, 100 complete control)
Method in brief: (§2)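 Percent weed or crop control, judged by eye on a 0–100 scale 13 days post-treatment, reflects compound added to a 3 cm flood maintained over 2-leaf plants in the greenhouse. Missing entries are marked with a dash.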

[7] = test system: horseweed; assay: Test A postemergence; assay type: in vivo, Erigeron canadensis
Method in brief: as §1

[8] = test system: oat, wild; assay: Test A preemergence; assay type: in vivo, Avena fatua
Method in brief: as §1

[9] = test system: rice; assay: Test B flooded paddy test; assay type: in vivo, Oryza sativa; settings: 250 g ai/ha, Flood, 13 days, 0 to 100 scale (0 no effect, 100 complete control)
Method in brief: as §2

[10] = test system: ducksalad; assay: Test B flooded paddy test; assay type: in vivo, Heteranthera limosa; settings: 250 g ai/ha, Flood, 13 days, 0 to 100 scale (0 no effect, 100 complete control)
Method in brief: as §2

[11] = test system: ragweed; assay: Test A postemergence; assay type: in vivo, Ambrosia artemisiifolia
Method in brief: as §1

[12] = test system: kochia; assay: Test A preemergence; assay type: in vivo, Bassia scoparia
Method in brief: as §1

[13] = test system: wheat; assay: Test A postemergence; assay type: in vivo, Triticum aestivum
Method in brief: as §1

[14] = test system: goosegrass; assay: Test A postemergence; assay type: in vivo, Eleusine indica
Method in brief: as §1

[15] = test system: ryegrass, Italian; assay: Test A preemergence; assay type: in vivo, Lolium multiflorum
Method in brief: as §1

[16] = test system: kochia; assay: Test A postemergence; assay type: in vivo, Bassia scoparia
Method in brief: as §1

[17] = test system: galium; assay: Test A postemergence; assay type: in vivo, Galium aparine
Method in brief: as §1

[18] = test system: ryegrass, Italian; assay: Test A postemergence; assay type: in vivo, Lolium multiflorum
Method in brief: as §1

[19] = test system: goosegrass; assay: Test A preemergence; assay type: in vivo, Eleusine indica
Method in brief: as §1

[20] = test system: foxtail, giant; assay: Test A postemergence; assay type: in vivo, Setaria faberi
Method in brief: as §1

[21] = test system: ragweed; assay: Test A preemergence; assay type: in vivo, Ambrosia artemisiifolia
Method in brief: as §1

[22] = test system: sedge, umbrella; assay: Test B flooded paddy test; assay type: in vivo, Cyperus difformis; settings: 250 g ai/ha, Flood, 13 days, 0 to 100 scale (0 no effect, 100 complete control)
Method in brief: as §2

[23] = test system: corn; assay: Test A postemergence; assay type: in vivo, Zea mays
Method in brief: as §1

[24] = test system: blackgrass; assay: Test A postemergence; assay type: in vivo, Alopecurus myosuroides
Method in brief: as §1

[25] = test system: soybean; assay: Test A preemergence; assay type: in vivo, Glycine max
Method in brief: as §1

[26] = test system: wheat; assay: Test A preemergence; assay type: in vivo, Triticum aestivum
Method in brief: as §1

[27] = test system: soybean; assay: Test A postemergence; assay type: in vivo, Glycine max
Method in brief: as §1

[28] = test system: pigweed, palmer; assay: Test A postemergence; assay type: in vivo, Amaranthus palmeri
Method in brief: as §1

[29] = 125 g ai/ha, visual injury after 10 days, 0 to 100 scale, 0 is no effect, 100 is complete control
[30] = 500 g ai/ha, 0 to 100 scale (0 no effect, 100 complete control), 10 days
[31] = 125 g ai/ha, postemergence, 10 days, visual injury, 0 to 100 scale (0 no effect, 100 complete control)
[32] = 500 g ai/ha, Postemergence, 0 to 100 scale

CC1CN(C(=O)c2cccc(-n3cncn3)c2)c2c(F)cccc2O1 (stereo not shown) [Compound 28]
Plant response rating, Blackgrass [1, 29]: 0 | Plant response rating, Blackgrass [1, 30]: 60 | Plant response rating, Foxtail, Giant [2, 29]: 30 | Plant response rating, Foxtail, Giant [2, 30]: 90 | Plant response rating, Oat, Wild [3, 31]: 20 | Plant response rating, Oat, Wild [3, 32]: 30 | Plant response rating, Pigweed, Palmer [4, 29]: 0 | Plant response rating, Pigweed, Palmer [4, 30]: 50 | Plant response rating, Corn [5, 29]: 0 | Plant response rating, Corn [5, 30]: 30 | Plant response rating, Barnyardgrass [6]: 10 | Plant response rating, Horseweed [7, 31]: 0 | Plant response rating, Horseweed [7, 32]: 0 | Plant response rating, Oat, Wild [8, 29]: 0 | Plant response rating, Oat, Wild [8, 30]: 0 | Plant response rating, Rice [9]: 0 | Plant response rating, Ducksalad [10]: 80 | Plant response rating, Ragweed [11, 31]: 0 | Plant response rating, Ragweed [11, 32]: 0 | Plant response rating, Kochia [12, 29]: 0 | Plant response rating, Kochia [12, 30]: 20 | Plant response rating, Wheat [13, 31]: 10 | Plant response rating, Wheat [13, 32]: 30 | Plant response rating, Goosegrass [14, 31]: 0 | Plant response rating, Goosegrass [14, 32]: 50 | Plant response rating, Ryegrass, Italian [15, 29]: 40 | Plant response rating, Ryegrass, Italian [15, 30]: 90 | Plant response rating, Kochia [16, 31]: 0 | Plant response rating, Kochia [16, 32]: 20 | Plant response rating, Galium [17, 31]: 50 | Plant response rating, Galium [17, 32]: 50 | Plant response rating, Ryegrass, Italian [18, 31]: 0 | Plant response rating, Ryegrass, Italian [18, 32]: 70 | Plant response rating, Goosegrass [19, 29]: 20 | Plant response rating, Goosegrass [19, 30]: 80 | Plant response rating, Foxtail, Giant [20, 31]: 0 | Plant response rating, Foxtail, Giant [20, 32]: 70 | Plant response rating, Ragweed [21, 29]: 0 | Plant response rating, Ragweed [21, 30]: 20 | Plant response rating, Sedge, Umbrella [22]: 0 | Plant response rating, Corn [23, 31]: 0 | Plant response rating, Corn [23, 32]: 20 | Plant response rating, Blackgrass [24, 31]: 30 | Plant response rating, Blackgrass [24, 32]: 80 | Plant response rating, Soybean [25, 29]: 0 | Plant response rating, Soybean [25, 30]: 0 | Plant response rating, Wheat [26, 29]: 0 | Plant response rating, Wheat [26, 30]: 10 | Plant response rating, Soybean [27, 31]: 90 | Plant response rating, Soybean [27, 32]: 90 | Plant response rating, Pigweed, Palmer [28, 31]: 0 | Plant response rating, Pigweed, Palmer [28, 32]: 20
